Our source for the DC50 values is patent publication US8003649B2 (AstraZeneca AB, priority 2007, dated 2011).

The target in this assay is T1, Androgen Receptor (AR) (Homo sapiens, UniProt P10275, T878A).
T1 construct: cell based immuno-fluorescence assay using the LNCaP prostate epithelial cell line; endogenous in cells; host or cells: LNCaP clone FGC (ATCC CRL-1740)
T1 sequence (P10275 1-920 T878A): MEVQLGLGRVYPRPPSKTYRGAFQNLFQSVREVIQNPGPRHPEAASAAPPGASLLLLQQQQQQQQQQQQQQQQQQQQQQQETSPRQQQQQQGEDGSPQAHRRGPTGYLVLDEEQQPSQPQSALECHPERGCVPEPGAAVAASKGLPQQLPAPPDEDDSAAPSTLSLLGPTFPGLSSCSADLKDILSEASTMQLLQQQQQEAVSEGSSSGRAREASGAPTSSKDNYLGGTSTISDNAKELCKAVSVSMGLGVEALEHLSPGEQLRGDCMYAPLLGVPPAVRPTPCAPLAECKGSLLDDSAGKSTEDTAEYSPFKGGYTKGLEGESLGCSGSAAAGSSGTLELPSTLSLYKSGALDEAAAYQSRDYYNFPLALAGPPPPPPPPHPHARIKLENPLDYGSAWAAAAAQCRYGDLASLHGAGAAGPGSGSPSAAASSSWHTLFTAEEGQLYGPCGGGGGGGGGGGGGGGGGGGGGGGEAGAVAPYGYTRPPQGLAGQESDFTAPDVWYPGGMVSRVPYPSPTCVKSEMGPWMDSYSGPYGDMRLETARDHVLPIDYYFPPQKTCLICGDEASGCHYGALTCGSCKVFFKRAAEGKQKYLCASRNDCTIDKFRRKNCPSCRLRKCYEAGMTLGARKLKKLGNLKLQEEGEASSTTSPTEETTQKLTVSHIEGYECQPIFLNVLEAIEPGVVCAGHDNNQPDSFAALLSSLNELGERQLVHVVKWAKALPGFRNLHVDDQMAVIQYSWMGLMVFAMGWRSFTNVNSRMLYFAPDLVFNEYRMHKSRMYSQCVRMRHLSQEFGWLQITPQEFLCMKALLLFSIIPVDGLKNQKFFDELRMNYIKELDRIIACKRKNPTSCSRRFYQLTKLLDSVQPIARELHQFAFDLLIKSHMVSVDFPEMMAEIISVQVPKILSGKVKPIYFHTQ
As to the kind of experiment: LNCaP Androgen Receptor Down-regulation Cell Assay (immunofluorescence end point). The class given is cell-based. Particulars: LNCaP prostate carcinoma cells, compound incubation 20-22 hours, 50% reduction of the AR signal; read-out: Androgen Receptor Down-regulation Assay (a) IC50/μM. The method, boiled down:
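AR loss reported as IC50 from curve fits of fluorescence dose-response data, with AR immunostained and read by laser-scanning cytometry. Compound exposure was 20-22 h at 37° C in LNCaP cells grown in 5% charcoal-stripped FBS and plated overnight beforehand.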
With `CN(C)C(=O)c1ccc2[nH]cc(C3CCN(c4ccc5nnc(C(F)(F)F)n5n4)CC3)c2c1` [Example 499], the DC50 is 1.7 µM.

Take `O=C(c1ccc2[nH]cc(C3CCN(c4ccc5nnc(C(F)(F)F)n5n4)CC3)c2c1)N1CC[C@@H](O)C1` [Example 500]: the DC50 is greater than 18 µM.

Regarding `O=C(c1ccc2[nH]cc(C3CCN(c4ccc5nnc(C(F)(F)F)n5n4)CC3)c2c1)N1CCOCC1` [Example 502], the DC50 is 2.2 µM.

Take `O=C(NCCN1CCOCC1)c1ccc2[nH]cc(C3CCN(c4ccc5nnc(C(F)(F)F)n5n4)CC3)c2c1` [Example 503]: the DC50 is 4.3 µM.

Turning to `COCCN(C)C(=O)c1ccc2[nH]cc(C3CCN(c4ccc5nnc(C(F)(F)F)n5n4)CC3)c2c1` [Example 504], the DC50 came out at 1.9 µM.

Take `O=C(c1ccc2[nH]cc(C3CCN(c4ccc5nnc(C(F)(F)F)n5n4)CC3)c2c1)N1CC[C@H](O)C1` [Example 505]: the DC50 is greater than 19 µM.

As for `FC(F)(F)c1nnc2ccc(N3CCC(c4c[nH]c5ccccc45)CC3)nn12` [Example 507, 6-[4-(1H-indol-3-yl)piperidin-1-yl]-3-(trifluoromethyl)[1,2,4]triazolo[4,3-b]pyridazine], the DC50 was 0.53 µM.

Consider `FC(F)(F)c1nnc2ccc(N3CCC(c4cn(CCN5CCCC5)c5ccccc45)CC3)nn12` [Example 508, 6-[4-[1-(2-pyrrolidin-1-ylethyl)-1H-indol-3-yl]piperidin-1-yl]-3-(trifluoromethyl)[1,2,4]triazolo[4,3-b]pyridazine], for which the DC50 was 2.2 µM.

For `COCCN(C)C(=O)c1ccc(C2CCN(c3ccc4nnc(C(F)(F)F)n4n3)CC2)cc1` [Example 512, N-(2-methoxyethyl)-N-methyl-4-[1-[3-(trifluoromethyl)[1,2,4]triazolo[4,3-b]pyridazin-6-yl]piperidin-4-yl]benzamide], the DC50 stood at 0.87 µM.

With `Cn1nccc1CCOc1ccc(N2CCN(c3ccc4nnc(C(F)(F)F)n4n3)CC2)cc1` [Example 514, 6-[4-[4-[2-(1-methyl-1H-pyrazol-5-yl)ethoxy]phenyl]piperazin-1-yl]-3-(trifluoromethyl)[1,2,4]triazolo[4,3-b]pyridazine], the DC50 came to 0.87 µM.

For the compound `FC(F)(F)c1nnc2ccc(N3CCCC(c4ccccc4)C3)nn12` (stereo not drawn) [Example 515, 6-(3-phenylpiperidin-1-yl)-3-(trifluoromethyl)[1,2,4]triazolo[4,3-b]pyridazine], the DC50 is 1.4 µM.

Regarding `FC(F)(F)c1nnc2ccc(N3CCCC(COc4ccccc4)C3)nn12` (stereo not drawn) [Example 516, 6-[3-(Phenoxymethyl)piperidin-1-yl]-3-(trifluoromethyl)[1,2,4]triazolo[4,3-b]pyridazine], the DC50 was determined as 1.4 µM.

Consider `CS(=O)(=O)c1ccc(C2CCN(c3ccc4nnc(C(F)(F)F)n4n3)CC2)cc1` [Example 521], for which the DC50 came out at 5.4 µM.

Regarding `CNC(=O)c1ccc(C2CCN(c3ccc4nnc(C(F)(F)F)n4n3)CC2)cc1` [Example 522], the DC50 came to 3.9 µM.

With `COc1ccc(C2CCN(c3ccc4nnc(C(F)(F)F)n4n3)CC2)cc1` [Example 523], the DC50 was 1 µM.

Take `FC(F)(F)c1ccc(C2CCN(c3ccc4nnc(C(F)(F)F)n4n3)CC2)cc1` [Example 524]: the DC50 is 3.2 µM.

Take `Fc1cccc(C2CCN(c3ccc4nnc(C(F)(F)F)n4n3)CC2)c1` [Example 525]: the DC50 was found to be 5.2 µM.

As to `COc1cccc(C2CCN(c3ccc4nnc(C(F)(F)F)n4n3)CC2)c1` [Example 526], the DC50 is 2.5 µM.

In the case of `COc1cccc(OC2CCN(c3ccc4nnc(C(F)(F)F)n4n3)CC2)c1` [Example 527], the DC50 turned out to be 0.67 µM.

Consider `COc1ccc(OC2CCN(c3ccc4nnc(C(F)(F)F)n4n3)CC2)cc1` [Example 528], for which the DC50 was 2.2 µM.

As for `Fc1ccccc1OC1CCN(c2ccc3nnc(C(F)(F)F)n3n2)CC1` [Example 529], the DC50 was determined as 1.9 µM.

`FC(F)(F)c1nnc2ccc(N3CCC(Oc4ccccc4Cl)CC3)nn12` [Example 530]: the DC50 amounted to 1.6 µM.

Consider `COc1ccccc1OC1CCN(c2ccc3nnc(C(F)(F)F)n3n2)CC1` [Example 531], for which the DC50 came to 1.8 µM.

Consider `Fc1cccc(OC2CCN(c3ccc4nnc(C(F)(F)F)n4n3)CC2)c1` [Example 532], for which the DC50 turned out to be 0.98 µM.

For `O=C(c1ccccc1)C1CCN(c2ccc3nnc(C(F)(F)F)n3n2)CC1` [Example 533], the DC50 came out at 2.3 µM.

Take `O=C(c1ccc(F)cc1)C1CCN(c2ccc3nnc(C(F)(F)F)n3n2)CC1` [Example 534]: the DC50 is 2.3 µM.

As to `FC(F)(F)c1nnc2ccc(N3CCC(Cc4ccccc4)CC3)nn12` [Example 535], the DC50 is 1.9 µM.

With `Fc1ccc(CC2CCN(c3ccc4nnc(C(F)(F)F)n4n3)CC2)cc1` [Example 536], the DC50 was 1.4 µM.

Turning to `FC(F)(F)c1nnc2ccc(N3CCC(Cc4ccccn4)CC3)nn12` [Example 537], the DC50 turned out to be 3 µM.

On to `FC(F)(F)c1nnc2ccc(N3CCC(Cc4ccncc4)CC3)nn12` [Example 538], for which the DC50 came to 2.3 µM.

For `FC(F)(F)c1nnc2ccc(N3CCC(Cc4cccnc4)CC3)nn12` [Example 539], the DC50 amounted to 1.5 µM.

Take `FC(F)(F)c1nnc2ccc(N3CCC(c4ccncc4)CC3)nn12` [Example 540]: the DC50 was determined as 1.5 µM.

With `FC(F)(F)c1nnc2ccc(N3CCC(n4ccc5ccccc54)CC3)nn12` [Example 542], the DC50 stood at 2.6 µM.

Turning to `FC(F)(F)c1nnc2ccc(N3CCC(Oc4cnccn4)CC3)nn12` [Example 544], the DC50 came out at 2.9 µM.

Take `FC(F)(F)c1nnc2ccc(N3CCC(Oc4ccncc4)CC3)nn12` [Example 545]: the DC50 is 3.6 µM.

In the case of `OC1(Cc2ccccc2)CCN(c2ccc3nnc(C(F)(F)F)n3n2)CC1` [Example 548], the DC50 amounted to 2.2 µM.

On to `OC1(c2ccccc2F)CCN(c2ccc3nnc(C(F)(F)F)n3n2)CC1` [Example 549], for which the DC50 is 1.6 µM.

As to `OC1(c2ccncc2)CCN(c2ccc3nnc(C(F)(F)F)n3n2)CC1` [Example 550], the DC50 stood at 7.2 µM.

For the compound `Fc1ccc(C2=CCN(c3ccc4nnc(C(F)(F)F)n4n3)CC2)cc1` [Example 552], the DC50 turned out to be 7.8 µM.

Take `FC(F)(F)c1nnc2ccc(N3C[C@H]4CC[C@@H](C3)N4Cc3cccnc3)nn12` [Example 553, 6-[(1R,5S)-8-(pyridin-3-ylmethyl)-3,8-diazabicyclo[3.2.1]oct-3-yl]-3-(trifluoromethyl)[1,2,4]triazolo[4,3-b]pyridazine]: the DC50 was found to be 2.6 µM.

For the compound `Fc1ccc(CN[C@H]2[C@@H]3CN(c4ccc5nnc(C(F)(F)F)n5n4)C[C@@H]32)cc1` [Example 554, (1α,5α,6α) N-(4-fluorobenzyl)-3-[3-(trifluoromethyl)[1,2,4]triazolo[4,3-b]pyridazin-6-yl]-3-azabicyclo[3.1.0]hexan-6-amine], the DC50 stood at 4.9 µM.

As to `FC(F)(F)c1nnc2ccc(N3C[C@@H]4[C@H](C3)[C@H]4NCc3cccc(Cl)c3)nn12` [Example 555], the DC50 amounted to 1.4 µM.

`Fc1cccc(CN[C@H]2[C@@H]3CN(c4ccc5nnc(C(F)(F)F)n5n4)C[C@@H]32)c1` [Example 556]: the DC50 is 4.4 µM.

In the case of `FC(F)(F)c1nnc2ccc(N3CCC(COc4ncccn4)CC3)nn12` [Example 558], the DC50 is 2.6 µM.

Take `FC(F)(F)c1nnc2ccc(N3CCC(COc4cccnc4)CC3)nn12` [Example 560]: the DC50 worked out at 8.8 µM.

On to `FC(F)(F)c1nnc2ccc(N3CCC(COc4ccncc4)CC3)nn12` [Example 561], for which the DC50 came to 2.9 µM.

As for `FC(F)(F)c1nnc2ccc(N3CCC(COc4cccc(Cl)n4)CC3)nn12` [Example 562, 6-[4-[[(6-chloropyridin-2-yl)oxy]methyl]piperidin-1-yl]-3-(trifluoromethyl)[1,2,4]triazolo[4,3-b]pyridazine], the DC50 was 2 µM.

With `C[C@@H]1CN(c2ccc3nnc(C(F)(F)F)n3n2)CCN1Cc1cccnc1` [Example 564, 6-[(3R)-3-methyl-4-(pyridin-3-ylmethyl)piperazin-1-yl]-3-(trifluoromethyl)[1,2,4]triazolo[4,3-b]pyridazine], the DC50 came out at 6.7 µM.

With `C[C@@H]1CN(c2ccc3nnc(C(F)(F)F)n3n2)CCN1Cc1ccc(C#N)cc1` [Example 565], the DC50 was found to be 3.5 µM.

Take `C[C@@H]1CN(c2ccc3nnc(C(F)(F)F)n3n2)CCN1Cc1cc(F)cc(F)c1` [Example 567]: the DC50 was greater than 16 µM.

With `C[C@@H]1CN(c2ccc3nnc(C(F)(F)F)n3n2)CCN1Cc1ccc(F)cc1` [Example 568], the DC50 worked out at 3.3 µM.
